US12247004B2, “2-amino-N-(amino-oxo-aryl-lambda6-sulfanylidene)acetamide compounds and their therapeutic use” (Oxford Drug Design Limited, priority 2019, dated 2025)
≈ marks a conversion by molar mass, not a printed value. Structures can show the parent of a compound that is named as a salt. Where two headings read alike, the source gives them in different places.

Key:
[1] = Human cell viability / cytotoxicity (CellTiter-Glo, 24 hours); type: cell-based; conditions: human, HepG2 cells (ATCC HB-8065); HepG2 ATCC HB-8065, 24 hours; read-out: Cytotoxicity in HepG2 ATCC HB-8065 Cell Line, IC50
Procedure: Study 3—Human Cell Viability
Compounds were assessed for potential non-specific cytotoxic effects against a human hepatic cell line (HepG2 ATCC HB-8065). 96-well plates were seeded with HepG2 cells in concentration of 15,000 cells per well in 100 μL of MEM growth media completed with 1% NEAA and 1% sodium pyruvate. Border wells were filled with 100 μL of sterile PBS. Two days upon cells incubation, the compounds were added. Compound dilutions were prepared in 96-well V-bottom plate in pure DMSO. Growth media from 5 plates were aspirated and replaced with 98.7 μL of fresh growth media. 1.28 μL of compounds prepared in V-bottom plates were transferred with multichannel pipette into test plates (78.1× dilution). Final DMSO concentration was 1.28% per well. In control wells, 1.28 μL of DMSO was added in 98.7 μL of media. Compounds were tested in duplicates. Cells were incubated with compounds for 24 hours when cell viability was assessed by measuring ATP levels. ATP levels were measured by adding 50 μL of CellTiter-Glo reagent to each well and after 5 minutes of incubation luminescence was measured with SpectraMax i3. The potential effect of tested compounds on cell viability was determined by comparing the signal obtained in presence of different concentrations of the compounds with those obtained in the presence of DMSO only. The potential effects were then calculated and presented as IC50 values (μg/mL).

[2] = molecular target: Leucyl-tRNA synthetase (LeuRS) (Escherichia coli (strain K12), UniProt P07813); experiment: Leucyl-tRNA synthetase enzyme inhibition (AMP-Glo; single point % inhibition at 100 μM and IC50); type: biochemical
Text: Study 1—Enzyme Inhibition
The aminoacylation reaction catalyzed by aminoacyl-tRNA synthetases (aaRS) takes place in two steps. In the first step, aaRS activates its cognate amino acid with ATP; and in the second step the activated amino acid is loaded to its corresponding tRNA. This reaction can be summarized as follows: aaRS+aa+ATP=aaRS-aa-AMP+PPi aaRS-aa-AMP+tRNA=aa-tRNA+AMP+aaRS
wherein: aaRS, aminoacyl-tRNA synthetase; aa, amino acid; aaRS-aa-AMP, enzyme-bound to aminoacyl-adenylate; AMP, adenosine monophosphate; aa-tRNA, aminoacyl-tRNA, PPi, inorganic pyrophosphate.
a. Single Point Percentage Inhibition
The activity of the pathogenic aaRSs was monitored by measuring AMP production using the commercial kit AMP-Glo (Promega, Madison, USA).
Ligand stock solutions were prepared in 100% DMSO at 10 mM concentration. An assay buffer consisting of 100 mM Tris HCl pH 7.6, 40 mM MgCl, 20 mM KCl and 150 mM NaCl was prepared in dH2O.
Using the same enzymatic assay in a 384-well plate format, ten point concentration response curves were generated for each compound using a top concentration of 10 μM. The known inhibitor LeuAMS was used as a positive control for the LeuRS assay. 100% DMSO was used as a negative control. The IC50 was calculated based on non-linear regression analysis.

[3] = tested on: bacteria (ATCC reference strains); experiment: Antibacterial activity, MIC by broth micro-dilution (CLSI)
[4] = E. coli LeuRS, read-out: Enzyme Inhibition - IC50, E. coli LeuRS
[5] = Escherichia coli, ATCC25922, read-out: Antibacterial Activity (MIC), A = E. coli ATCC 25922
[6] = Escherichia coli, BAA2469, read-out: Antibacterial Activity (MIC), G = E. coli BAA-2469
[7] = Acinetobacter baumannii, read-out: Antibacterial Activity (MIC), E = A. baumannii B1931
[8] = Enterobacter cloacae, read-out: Antibacterial Activity (MIC), B = Enterobacter cloacae B1966
[9] = Klebsiella pneumoniae, ATCC700603, read-out: Antibacterial Activity (MIC), C = K. pneumoniae ATCC 700603
[10] = Pseudomonas aeruginosa, ATCC27853, read-out: Antibacterial Activity (MIC), D = P. aeruginosa ATCC 27853

Chain of Leucyl-tRNA synthetase (LeuRS) (P07813 whole entry, looked up): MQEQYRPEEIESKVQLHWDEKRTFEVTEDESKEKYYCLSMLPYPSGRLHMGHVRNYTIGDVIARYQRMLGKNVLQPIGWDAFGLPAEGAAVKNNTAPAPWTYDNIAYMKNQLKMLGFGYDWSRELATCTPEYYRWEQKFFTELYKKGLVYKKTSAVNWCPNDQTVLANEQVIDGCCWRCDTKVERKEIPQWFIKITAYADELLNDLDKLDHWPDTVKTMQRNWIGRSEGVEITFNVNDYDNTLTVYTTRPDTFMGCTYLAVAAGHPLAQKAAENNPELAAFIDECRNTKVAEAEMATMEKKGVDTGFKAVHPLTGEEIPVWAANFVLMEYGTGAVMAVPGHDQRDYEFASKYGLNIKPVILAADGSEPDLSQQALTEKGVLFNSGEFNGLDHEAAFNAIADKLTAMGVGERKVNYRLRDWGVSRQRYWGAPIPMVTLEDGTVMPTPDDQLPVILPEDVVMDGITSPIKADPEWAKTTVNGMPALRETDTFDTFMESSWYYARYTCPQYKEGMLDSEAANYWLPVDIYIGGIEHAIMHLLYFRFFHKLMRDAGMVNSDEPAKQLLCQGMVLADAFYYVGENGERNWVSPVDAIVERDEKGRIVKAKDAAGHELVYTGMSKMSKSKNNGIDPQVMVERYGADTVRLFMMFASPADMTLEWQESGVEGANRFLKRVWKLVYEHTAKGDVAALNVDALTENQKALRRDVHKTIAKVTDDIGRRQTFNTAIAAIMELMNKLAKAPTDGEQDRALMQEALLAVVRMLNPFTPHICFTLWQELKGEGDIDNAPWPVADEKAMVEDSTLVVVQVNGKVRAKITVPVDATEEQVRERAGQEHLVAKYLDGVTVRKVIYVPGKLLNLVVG

Structure (SMILES) | IC50 at 24 h [1] [µg/mL] | IC50 [2] [nM] | IC50 [2, 4] [nM] | MIC [3, 5] [µg/mL] | other results
COc1ccc([S@@](N)(=O)=NC(=O)[C@@H](N)CC(C)C)cc1C [ANASIA-022-1] | > 64 | 6570 |  |  | 
CC(C)C[C@H](N)C(=O)N=[S@](N)(=O)c1ccc(Cl)cc1 [ANASIA-040-1] | > 64 | 2540 |  |  | 
CC(C)C[C@H](N)C(=O)N=S(N)(=O)c1cccc(F)c1 (stereo partly shown) [ANASIA-011] | > 64 |  |  |  | 
Cc1ccc([S@@](N)(=O)=NC(=O)[C@@H](N)CC(C)C)cc1 [ANASIA-021-1] | > 64 | 2060 |  |  | 
CC(C)C[C@H](N)C(=O)N=[S@@](N)(=O)c1cccc(-c2ccccc2)c1 [ANASIA-018-2] | > 64 |  | 2970 |  | 
CC(C)C[C@H](N)C(=O)N=[S@@](N)(=O)c1sccc1Cl [ANASIA-012-2] | > 64 |  | 3230 |  | 
CC(C)C[C@H](N)C(=O)N=S(N)(=O)c1sccc1-c1ccccc1 (stereo partly shown) [ANASIA-068] |  |  | 141 | 32 (≈ 91 µM) | MIC [3, 6]: > 64 µg/mL
CC(C)C[C@H](N)C(=O)N=[S@](N)(=O)c1c(F)cccc1F [ANASIA-026-1] | > 64 | 564 |  |  | 
CC(C)C[C@H](N)C(=O)N=[S@](N)(=O)c1ccc2c(c1)OCO2.Cl [ANASIA-101-1] |  | 1670 |  | 64 | 
CC(C)C[C@H](N)C(=O)N=S(N)(=O)c1ccc2ccccc2c1 (stereo partly shown) [ANASIA-013] | > 64 |  | 3570 |  | 
Cc1csc([S@@](N)(=O)=NC(=O)[C@@H](N)CC(C)C)c1.Cl [ANASIA-095-1] |  | 29 |  | 0.794 | MIC [3, 7]: 8 µg/mL; MIC [3, 8]: 8 µg/mL; MIC [3, 6]: 2 µg/mL; MIC [3, 9]: 10.1 µg/mL; MIC [3, 10]: 32 µg/mL
CC(C)C[C@H](N)C(=O)N=[S@](N)(=O)c1cccc(-c2cccc(F)c2)c1 [ANASIA-051-1, (S)-2-amino-N—((S)-amino(3′-fluoro-[1,1′-biphenyl]-3-yl)(oxo)-λ6-sulfanylidene)-4-methylpentanamide hydrochloride] | > 64 | 601 |  |  | 
CC(C)C[C@H](N)C(=O)N=S(N)(=O)c1cccc2ccccc12 (stereo partly shown) [ANASIA-016] | > 64 |  | 3040 |  | 
CC(C)C[C@H](N)C(=O)N=[S@](N)(=O)c1cc(Cl)c(Cl)s1.Cl [ANASIA-121-1] |  | 41.7 |  | 8 | MIC [3, 6]: 16 µg/mL; MIC [3, 9]: > 256 µg/mL
CC(C)C[C@H](N)C(=O)N=[S@@](N)(=O)c1ccc(F)c2ccccc12 [ANASIA-020-2] | > 64 |  | 4090 |  | 
CC(C)C[C@H](N)C(=O)N=[S@@](N)(=O)c1scc(F)c1F [ANASIA-103-2] |  |  | 210 | 16 (≈ 51.4 µM) | 
CC(C)C[C@H](N)C(=O)N=[S@](N)(=O)c1ccc(F)c2ccccc12 [ANASIA-020-1] | > 64 | 2050 |  |  | 
CC(C)C[C@H](N)C(=O)N=[S@@](N)(=O)c1cccc(C#N)c1 [ANASIA-041-2] | > 64 |  | 832 |  | 
CC(C)C[C@H](N)C(=O)N=[S@](N)(=O)c1cccc2ccccc12 [ANASIA-016-1] | > 64 | 2200 |  |  | 
CC(C)C[C@H](N)C(=O)N=[S@](N)(=O)c1csc2cccnc12.Cl [ANASIA-131-1] |  | 530 |  | 32 | MIC [3, 6]: > 64 µg/mL; MIC [3, 9]: 256 µg/mL
C=Cc1ccc([S@@](N)(=O)=NC(=O)[C@@H](N)CC(C)C)s1 [ANASIA-105-1, (S)-2-amino-N—((S)-amino(oxo)(5-vinylthiophen-2-yl)-λ6-sulfanylidene)-4-methylpentanamide] |  | 489 |  | 32 (≈ 106 µM) | 
CC(C)C[C@H](N)C(=O)N=S(N)(=O)c1csc(F)c1 (stereo partly shown) [ANASIA-060] |  |  | 227 |  | MIC [3, 6]: 16 µg/mL (≈ 54.5 µM); MIC [3, 9]: 32 µg/mL (≈ 109 µM)
CCc1ccsc1[S@@](N)(=O)=NC(=O)[C@@H](N)CC(C)C.Cl [ANASIA-119-1] |  | 99.7 |  | 4 | MIC [3, 7]: 32 µg/mL; MIC [3, 8]: 32 µg/mL; MIC [3, 6]: 8 µg/mL; MIC [3, 9]: 64 µg/mL; MIC [3, 10]: > 64 µg/mL
